# Reference: ChEMBL document CHEMBL6074711, “Design, Synthesis, and Activity Evaluation of C-23-Modified 5-O-Mycaminosyltylonolide Derivatives” (ACS Med Chem Lett, 2024)
# Columns and labels:
# [1] = Cytotoxicity against mouse HT-22 cells incubated for 72 hrs by MTT assay; type: toxicity, cell-based
# [2] = test system: Stenotrophomonas maltophilia; test: Antibacterial activity against Stenotrophomonas maltophilia ATCC17808 incubated for 16 to 20 hrs by broth microdilution method; type: functional; details: time 16-20 hrs
# Escherichia coli [3] = test: Antibacterial activity against drug-resistant Escherichia coli clinical isolate 1322 incubated for 16 to 20 hrs by broth microdilution method; type: functional; details: time 16-20 hrs
# Enterococcus faecalis [4] = test: Bactericidal activity against Enterococcus faecalis ATCC29212 incubated for 20 to 24 hrs; type: functional; details: time 20-24 hrs
# [5] = Selectivity index, ratio of IC50 for mouse HT-22 cells to MIC for methicillin-resistant Staphylococcus aureus; type: toxicity, cell-based
# [6] = test system: Stenotrophomonas maltophilia; test: Antibacterial activity against Stenotrophomonas maltophilia ATCC17808 incubated for 20 to 24 hrs; type: functional; details: time 20-24 hrs
# Staphylococcus aureus [7] = test: Antibacterial activity against Staphylococcus aureus ATCC25923 under 10^7 CFU/ml of bacterial inoculum culture by absorbance based assay; type: functional
# Staphylococcus aureus [8] = test: Antibacterial activity against Staphylococcus aureus ATCC25923 incubated for 16 to 20 hrs by broth microdilution method; type: functional; details: time 16-20 hrs
# Escherichia coli [9] = test: Antibacterial activity against drug-resistant Escherichia coli clinical isolate 1333 incubated for 16 to 20 hrs by broth microdilution method; type: functional; details: time 16-20 hrs
# Staphylococcus aureus [10] = test: Antibacterial activity against Staphylococcus aureus ATCC25923 under 10^4 CFU/ml of bacterial inoculum culture by absorbance based assay; type: functional
# Escherichia coli [11] = test: Antibacterial activity against Escherichia coli ATCC25922 under 10^4 CFU/ml of bacterial inoculum culture by absorbance based assay; type: functional
# Escherichia coli [12] = test: Antibacterial activity against Escherichia coli ATCC25922 incubated for 16 to 20 hrs by broth microdilution method; type: functional; details: time 16-20 hrs
# Staphylococcus aureus [13] = test: Bactericidal activity against Staphylococcus aureus ATCC25923 incubated for 20 to 24 hrs; type: functional; details: time 20-24 hrs
# Escherichia coli [14] = test: Antibacterial activity against Escherichia coli ATCC25922 incubated for 20 to 24 hrs; type: functional; details: time 20-24 hrs
# Escherichia coli [15] = test: Antibacterial activity against Escherichia coli ATCC25922 under 10^6 CFU/ml of bacterial inoculum culture by absorbance based assay; type: functional
# Enterococcus faecalis [16] = test: Ratio of MBC to MIC for Enterococcus faecalis ATCC29212 incubated for 20 to 24 hrs; type: functional; details: time 20-24 hrs
# Staphylococcus aureus [17] = test: Antibacterial activity against Staphylococcus aureus ATCC25923 under 10^6 CFU/ml of bacterial inoculum culture by absorbance based assay; type: functional
# Staphylococcus aureus [18] = test: Ratio of MBC to MIC for Staphylococcus aureus ATCC25923 incubated for 20 to 24 hrs; type: functional; details: time 20-24 hrs
# Staphylococcus aureus [19] = test: Antibacterial activity against Staphylococcus aureus ATCC25923 incubated for 20 to 24 hrs; type: functional; details: time 20-24 hrs
# Staphylococcus aureus [20] = test: Antibacterial activity against Staphylococcus aureus ATCC25923 under 10^5 CFU/ml of bacterial inoculum culture by absorbance based assay; type: functional
# [21] = test system: Stenotrophomonas maltophilia; test: Ratio of MBC to MIC for Stenotrophomonas maltophilia ATCC17808 incubated for 20 to 24 hrs; type: functional; details: time 20-24 hrs
# Staphylococcus aureus [22] = test: Antibacterial activity against drug-resistant Staphylococcus aureus clinical isolate M20 incubated for 16 to 20 hrs by broth microdilution method; type: functional; details: time 16-20 hrs
# [23] = test system: Stenotrophomonas maltophilia; test: Bactericidal activity against Stenotrophomonas maltophilia ATCC17808 incubated for 20 to 24 hrs; type: functional; details: time 20-24 hrs
# Escherichia coli [24] = test: Antibacterial activity against Escherichia coli ATCC25922 under 10^5 CFU/ml of bacterial inoculum culture by absorbance based assay; type: functional
# Enterococcus faecalis [25] = test: Antibacterial activity against Enterococcus faecalis ATCC29212 incubated for 16 to 20 hrs by broth microdilution method; type: functional; details: time 16-20 hrs
# Escherichia coli [26] = test: Antibacterial activity against Escherichia coli ATCC25922 under 10^7 CFU/ml of bacterial inoculum culture by absorbance based assay; type: functional
# Enterococcus faecalis [27] = test: Antibacterial activity against Enterococcus faecalis ATCC29212 incubated for 20 to 24 hrs; type: functional; details: time 20-24 hrs
# Staphylococcus aureus [28] = test: Induction of resistance development in Staphylococcus aureus ATCC25923 treated daily with continuous passaging measured after 16 passages by absorbance based assay; type: functional; details: ATCC25923, 384 h, time 16 day
# Staphylococcus aureus [29] = test: Induction of resistance development in Staphylococcus aureus ATCC25923 treated daily with continuous passaging measured after 13 passages by absorbance based assay; type: functional; details: ATCC25923, 312 h, time 13 day
compound,measurement,setting,value
CC[C@H]1OC(=O)C[C@@H](O)[C@H](C)[C@@H](O[C@@H]2O[C@H](C)[C@@H](O)[C@H](N(C)C)[C@H]2O)[C@@H](CCN2CCCCC2)C[C@@H](C)C(=O)/C=C/C(C)=C/[C@@H]1CN1CCCCC1 [TILDIPIROSIN],IC50 at 72 h,[1],114 µg/mL
same,MIC,[2],1 µg/mL
same,MIC,Escherichia coli [3],4 µg/mL
same,MBC,Enterococcus faecalis [4],16 µg/mL
same,selectivity ratio,[5],3.56
same,MIC,[6],8 µg/mL
same,MIC,Staphylococcus aureus [7],1 µg/mL
same,MIC,Staphylococcus aureus [8],16 µg/mL
same,MIC,Escherichia coli [9],16 µg/mL
same,MIC,Staphylococcus aureus [10],0.5 µg/mL
same,MIC,Escherichia coli [11],> 32 µg/mL
same,MIC,Escherichia coli [12],1 µg/mL
same,MBC,Staphylococcus aureus [13],4 µg/mL
same,MIC,Escherichia coli [14],32 µg/mL
same,MIC,Escherichia coli [15],> 32 µg/mL
same,Ratio,Enterococcus faecalis [16],2
same,MIC,Staphylococcus aureus [17],1 µg/mL
same,Ratio,Staphylococcus aureus [18],8
same,MIC,Staphylococcus aureus [19],0.5 µg/mL
same,MIC,Staphylococcus aureus [20],0.5 µg/mL
same,Ratio,[21],2
same,MIC,Staphylococcus aureus [22],32 µg/mL
same,MBC,[23],16 µg/mL
same,MIC,Escherichia coli [24],> 32 µg/mL
same,MIC,Enterococcus faecalis [25],16 µg/mL
same,MIC,Escherichia coli [26],> 32 µg/mL
same,MIC,Enterococcus faecalis [27],8 µg/mL
CC(=O)NC[C@H]1CN(c2ccc(N3CCOCC3)c(F)c2)C(=O)O1 [LINEZOLID],MIC,[2],> 32 µg/mL
same,MIC,Staphylococcus aureus [28],16 µg/mL
same,MIC,Escherichia coli [11],< 0.063 µg/mL
same,MIC,Escherichia coli [12],> 32 µg/mL
same,MIC,Escherichia coli [15],< 0.063 µg/mL
same,MIC,Staphylococcus aureus [29],8 µg/mL
same,MIC,Escherichia coli [24],< 0.063 µg/mL
same,MIC,Escherichia coli [26],< 0.063 µg/mL
